How the values were obtained:
[1] = Appearance and stability of spray liquids after 24 h; format: physicochemical
Protocol: The composition of spray liquids A1-A18 is specified hereinafter. These spray liquids are produced by mixing the various test substances in water, and the appearance and stability of the spray liquid were assessed after 24 h.
The inventive alkenoylglucamides (A1 to A6) are self-emulsifying in the spray liquid and form cloudy homogeneous emulsions that are stable over 24 h. By contrast, spray liquids comprising non-inventive saturated alkylglucamides (A7-A13) of similar chain length are not phase-stable and flocculate.

[2] = Dynamic surface tension, bubble pressure method (BP2100 tensiometer, Krüss); format: physicochemical; details: for Dynamic surface tension [mN/m] 20 ms: surface age 20 ms; for Dynamic surface tension [mN/m] 50 ms: surface age 50 ms; for Dynamic surface tension [mN/m] 100 ms: surface age 100 ms; for Dynamic surface tension [mN/m] 200 ms: surface age 200 ms
Protocol: Dynamic surface tension was determined via the bubble pressure method (BP2100 tensiometer, Krüss). Given a timespan of relevance for the spray application of agrochemicals in aqueous dilution (called the surface age in the bubble pressure method) of 200 milliseconds (ms), the value for dynamic surface tension in [mN/m] correlates with the adhesion on plants that are difficult to wet, such as barley (cereal). A value of 50 mN/m (at 20-21° C.) with respect to water (72.8 mN/m) results in an improvement in the adhesion from “zero adhesion” (0%) to about 50% (Baur P., Pontzen R.; 2007; Basic features of plant surface wettability and deposit formation and the impact of adjuvant; in R. E. Gaskin ed. Proceedings of the 8th International Symposium on Adjuvants for Agrochemicals; Publisher: International Society for Agrochemical Adjuvants (ISAA), Columbus, Ohio, USA).

[3] = Droplet size distribution of spray (Malvern Spraytec, ID(3)12002 injector nozzle, 3 bar); format: physicochemical; details: summary of Table 4, no tankmix partner
From the text: A Malvern Spraytec “real-time spray sizing system” was used to determine the droplet size distribution. For this purpose, the system (STP5311, Malvern Instruments GmbH, Heidelberg, Germany) was installed in a specially constructed spray cabin, with the option of being able to model real spray applications as carried out in practice with freely adjustable pressure for various hydraulic nozzles and freely adjustable distances (nozzle-target surface). The spray cabin can be darkened and all disruptive parameters can be eliminated. For the measurements, the ID(3)12002 (Lechler) injector nozzles were used. The pressure set was varied, and mean pressure was kept constant at 3 bar for the measurements reported hereinafter. The temperature and relative air humidity varied between 21.5° C. and 29° C. and between 33% and 56% respectively. In each test series, tap water was measured as internal standard. […]
As a further measurement parameter, the proportion by volume of the droplets having diameter <210 μm (“Vol 210”) was determined and expressed in relation to the proportion by volume of droplets having diameter <105 μm (“Vol 210 / Vol 105”). In addition, the percentage reduction in the proportion by volume of droplets having diameter <105 μm in the case of use of spray liquids containing the test substances was calculated in comparison to the use of tap water as internal standard (“Red 105”).

[4] = tested on: apple leaf cuticles; assay: Membrane penetration test of metribuzin through isolated apple leaf cuticles; format: in vitro ADME; details: Sencor 600 SC, metribuzin 2.25 g/L, 10° C./56% rel. air humidity
Protocol: The potential of the test substances, which is independent of the surfactant action, to promote foliar absorption of active agrochemical ingredients was determined in membrane penetration tests with apple leaf cuticles using the example of metribuzin. […] Efforts are therefore being made to find additives that promote wetting but only slightly increase the uptake of the active ingredient, such that only a minimum portion of the active ingredient is taken up into the leaf. The plant cuticle is a lipophilic solubility membrane (lipid membrane) without pores or holes, and the results described are also expected for other nonporous lipophilic solubility membranes with these or other electrolyte active ingredients. The principle of the method has been published (e.g. WO-A-2005/194844; Baur, 1997; Baur, Grayson and Schönherr 1999; Baur, Bodelon and Lowe, 2012), and only the specifics and differences in the method are elucidated hereinafter. The leaf cuticles were enzymatically isolated in the manner described in the literature from apple leaves of orchard trees in a commercial stone fruit growing facility near Frankfurt am Main in 2016. The stomata-free cuticles were first dried under air and then installed into stainless steel diffusion cells. After application to the original upper side of the leaf and evaporation of the test liquid, i.e. of the aqueous preparations of the active ingredients without or with the glucamide-containing spray liquids or comparative compositions, the diffusion cells were transferred into thermostatted blocks and charged with aqueous liquid. The water used to make up the aqueous test liquids was local tap water (of known composition). At regular intervals, aliquot samples were taken and the proportion of active ingredient penetrated was determined by HPLC. During the experiment, the temperature in the system (block, diffusion cells, liquids, etc.) and the air humidity above the spray deposit on the cuticle were known exactly and were monitored. […] In each case, the geometric mean values of the penetration for intact membranes at the mean measurement times are given. According to the variant (active ingredient×test additive/formulation), 7-8 repetitions were set up. The coefficient of variation was below 35%, which is a typical biological variability for penetration for numerous plants (Baur, 1997).

[5] = tested on: indicator plants; assay: Plant compatibility after application to indicator plants; format: in vivo; details: concentrations of 0.1, 0.3, 0.8, 1.0, 1.5, 2 and 3 g/L

Structure (SMILES) | Dynamic surface tension [mN/m] 20 ms ([2]; amount 0.03 % by wt.) [mN/m] | Dynamic surface tension [mN/m] 20 ms ([2]; amount 0.1 % by wt.) [mN/m] | Dynamic surface tension [mN/m] 20 ms ([2]; amount 0.3 % by wt.) [mN/m] | Dynamic surface tension [mN/m] 50 ms ([2]; amount 0.03 % by wt.) [mN/m] | Dynamic surface tension [mN/m] 50 ms ([2]; amount 0.1 % by wt.) [mN/m] | Dynamic surface tension [mN/m] 50 ms ([2]; amount 0.3 % by wt.) [mN/m] | Dynamic surface tension [mN/m] 100 ms ([2]; amount 0.03 % by wt.) [mN/m] | Dynamic surface tension [mN/m] 100 ms ([2]; amount 0.1 % by wt.) [mN/m] | Dynamic surface tension [mN/m] 100 ms ([2]; amount 0.3 % by wt.) [mN/m] | Dynamic surface tension [mN/m] 200 ms ([2]; amount 0.03 % by wt.) [mN/m] | Dynamic surface tension [mN/m] 200 ms ([2]; amount 0.1 % by wt.) [mN/m] | Dynamic surface tension [mN/m] 200 ms ([2]; amount 0.3 % by wt.) [mN/m] | Plant compatibility (necroses or other symptoms such as leaf curl-up or deformation) [5] | further results
C=CCCCCCCCC(=O)N(C)CC(O)C(O)C(O)C(O)CO (stereo not drawn) [dec-9-enoyl-N-methylglucamide] |  |  |  |  |  |  |  |  |  |  |  |  |  | Water solubility in the spray liquid [1]: completely water-soluble; Appearance ([1]; spray liquid in water, assessed after 24 h): clear transparent spray liquid; Dynamic surface tension [mN/m] 20 ms ([2]; amount 0.06 % by wt.): 70.2 mN/m; Dynamic surface tension [mN/m] 20 ms ([2]; amount 0.125 % by wt.): 66.4 mN/m; Dynamic surface tension [mN/m] 20 ms ([2]; amount 0.25 % by wt.): 59.7 mN/m; Dynamic surface tension [mN/m] 50 ms ([2]; amount 0.06 % by wt.): 68.9 mN/m; Dynamic surface tension [mN/m] 50 ms ([2]; amount 0.125 % by wt.): 63.7 mN/m; Dynamic surface tension [mN/m] 50 ms ([2]; amount 0.25 % by wt.): 56.6 mN/m; Dynamic surface tension [mN/m] 100 ms ([2]; amount 0.06 % by wt.): 67.6 mN/m; Dynamic surface tension [mN/m] 100 ms ([2]; amount 0.125 % by wt.): 61.8 mN/m; Dynamic surface tension [mN/m] 100 ms ([2]; amount 0.25 % by wt.): 55.5 mN/m; Dynamic surface tension [mN/m] 200 ms ([2]; amount 0.06 % by wt.): 67.4 mN/m; Dynamic surface tension [mN/m] 200 ms ([2]; amount 0.125 % by wt.): 61.0 mN/m; Dynamic surface tension [mN/m] 200 ms ([2]; amount 0.25 % by wt.): 54.1 mN/m
CCCCCCCCCCCC(=O)N(C)CC(O)C(O)C(O)C(O)CO (stereo not drawn) [dodecanoyl-N-methylglucamide] | 70.6 | 70.0 | 67.0 | 67.3 | 66.8 | 61.9 | 63.0 | 60.1 | 58.8 | 57.9 | 51.4 | 48.7 |  | 
CCC=CCCCCCCCC(=O)N(C)CC(O)C(O)C(O)C(O)CO (stereo not drawn) [Dodec-9-enoyl-N-methylglucamide] | 70.0 | 56.1 | 44.5 | 66.1 | 47.7 | 38.5 | 61.9 | 44.0 | 36.0 | 58.6 | 40.1 | 33.4 | no necroses or other symptoms | Lowering of the dynamic surface tension (in words) ([2]; summary of Table 2): particularly large; Effect on fine droplet content (in words) [3]: distinct reduction in the fine droplet content; Mean penetration for metribuzin after time in % 1 day ([4]; test substance 0.05 % by wt.): 2.9%; Mean penetration for metribuzin after time in % 2 days ([4]; test substance 0.05 % by wt.): 4.6%; Mean penetration for metribuzin after time in % 1 day ([4]; test substance 0.1 % by wt.): 3.9%; Mean penetration for metribuzin after time in % 2 days ([4]; test substance 0.1 % by wt.): 6.5%; Mean penetration for metribuzin after time in % 1 day ([4]; test substance 0.14 % by wt.): 5.7%; Mean penetration for metribuzin after time in % 2 days ([4]; test substance 0.14 % by wt.): 8.6%
CCCCCCCCC(=O)N(C)C[C@H](O)[C@@H](O)[C@H](O)[C@H](O)CO [N-methyl-N-nonanoylglucamine] |  |  |  |  |  |  |  |  |  |  |  |  | no necroses or other symptoms | 

Reference: US20190110472A1, “ACTIVE INGREDIENT COMPOSITIONS COMPRISING N-ALKENOYL-N-ALKYLGLUCAMIDES AND THE USE THEREOF” (Clariant International, Ltd., priority 2017, published 2019)
